Laboratory results taken from publication PMC6154683, “High-Throughput Determination of Sodium Danshensu in Beagle Dogs by the LCMS/MS Method, Employing Liquid-Liquid Extraction Based on 96-Well Format Plates” (Molecules : A Journal of Synthetic Chemistry and Natural …, 2017).

Tests used:
[1] = Pharmacokinetic and bioavailability study in beagle dogs after intravenous and oral administration (plasma, LC-MS/MS); assay type: in vivo; conditions: for C0: mean ± SD
Protocol: All the studies on animals were done in accordance with the Guidelines for the Care and Use of Laboratory Animals. Beagle dogs (~10 kg) were purchased from the Shanghai Slack Experimental Animal Co., Ltd. (Shanghai, China) and acclimated in the laboratory for 1 week prior to the experiments, housed in separate cages under room temperature with a 12 h light/dark cycle, and free access to standard diet and water. All the beagle dogs were fasted for 12 h before the experiments with free access to water.
For pharmacokinetics study, 24 beagle dogs were randomly divided into four groups (n = 6). Four different dosages (5 mg/kg, 10 mg/kg, 15 mg/kg I.V., 60 mg/kg P.O.) were designed and were assigned randomly to the four groups of beagle dogs. Blood samples (500 μL) were withdrawn from the foreleg vein into heparinized tubes in strict accordance with the time points of the protocol made in advance. Then after centrifuging at 8000 rpm for 10 min, the supernatant plasma sample was transferred into another tube and frozen at −80 °C until analysis. The time points for blood sampling were listed as follows. Pre-dose and subsequently at 0, 0.03, 0.08, 0.17, 0.33, 0.67, 1, 1.5, 2, 3, 4, 6, 8, and 12 h were used for the three intravenous injection groups, and pre-dose, 0.08, 0.17, 0.25, 0.5, 0.75, 1, 1.5, 2, 3, 4, 6, 8, and 12 h were used for the oral administration group.
For plasma sample preparation, the LLE in 96-well format plate was used. Prior to analysis, all frozen plasma samples, calibration standards, and quality control samples were thawed and allowed to equilibrate at room temperature. The samples were vortexed adequately using a vortex mixer (Beijing Targintech Co. Ltd., Beijing, China) before pipetting. Samples were prepared using LLE in 96-well deep format plate (2 mL, Corning Life Sciences—Axygen Inc., Union City, CA, USA). An automatic multichannel pipette (INTEGRA Biosciences AG, Zizers, Switzerland) was used for liquid transfer steps. Aliquots of 100 μL plasma were transferred into the 96-well deep format plate. Aliquots of 10 μL of IS solution (25 ng/mL) were added to each well except for the well designated for the double blank plasma. Then 20 μL of 2 mol/L hydrochloric acid was added to each well of the plate, and vortexed for 30 s for mixing. The mixed sample was then extracted with 1000 μL methyl tert-butyl ether by vortex-mixing for 3 min in a platform shaker (Grant, Cambridge, UK). After centrifugation at 12,000 rpm for 10 min, 800 μL of the upper organic layer was transferred from the original sample plates into the respective positions of the new 2.0 mL deep 96-well plates. Extracts were concentrated to dryness by an automated concentration evaporation system at 30 °C under a gentle stream of nitrogen (Turbo Vap 96, Biotage AB, Uppsala, Sweden) for 15 min. After drying, the residue was reconstituted with 100 μL of methanol–water (50:50, v/v) and was then vortexed for 3 min and centrifuged for 10 min at 12,000 rpm. A 5 μL aliquot of the supernatant was injected into the LC-MS/MS system for analysis.
The pharmacokinetic analysis was performed using the non-compartmental model analysis. The concentration versus time data and the pharmacokinetic parameters including Cmax, t1/2, Tmax (h), AUC0-t, AUC0-12, MRT, CL, and Vd were assessed via non-compartmental analysis using the BAPP software (version 2.0, Center of Drug Metabolism and Pharmacokinetics, China Pharmaceutical University, Nanjing, china). The absolute bioavailability (%F) of sodium danshensu was estimated via AUC0→∞ values of oral and intravenous administration.

[2] = Stability of sodium danshensu in beagle dog plasma (QC samples); assay type: in vitro ADME; conditions: for Measured (mean ± SD): n = 3; for long-term stability in plasma (in words): beagle dog plasma stored at −80 °C for 20 days
Protocol: The analyte stability determinations comprised ambient temperature stability, long-term stability, autosampler stability, and freeze-thaw cycle stability, which were evaluated by analyzing two QC levels in triplicate. The QC samples were analyzed after storage at room temperature for 2 h, at −80 °C for 20 days, and in the autosampler at room temperature for at least 24 h after extraction and after three freeze-thaw cycles, which consisted of storage at −80 °C for a minimum of 12 h followed by thawing at room temperature.

[3] = dog, plasma, IV 5 mg/kg, beagle dogs
[4] = dog, plasma, IV 10 mg/kg, beagle dogs
[5] = dog, plasma, IV 15 mg/kg, beagle dogs
[6] = dog, plasma, PO 60 mg/kg, beagle dogs

## O=C([O-])[C@H](O)Cc1ccc(O)c(O)c1.[Na+] [sodium danshensu, sodium D-(+)-β-(3,4-dihydroxyphenyl) lactate]
[1]; [3]
  AUC(0-inf): 6870 ± 780 ng·h/mL
  AUC(0-t): 6710 ± 810 ng·h/mL
  MRT: 0.88 ± 0.41 h
  Vd: 6.63 ± 3.49 L
  clearance: 123 mL/min
  half-life: 2.3 ± 1.23 h
  C0: 36600 ± 3840 ng/mL
[1]; [4]
  AUC(0-inf): 8460 ± 430 ng·h/mL
  AUC(0-t): 8270 ± 380 ng·h/mL
  MRT: 1.08 ± 0.53 h
  Vd: 12.8 ± 5.5 L
  clearance: 197 mL/min
  half-life: 2.32 ± 1.33 h
  C0: 46700 ± 15200 ng/mL
[1]; [5]
  AUC(0-inf): 17800 ± 3040 ng·h/mL
  AUC(0-t): 17800 ± 3030 ng·h/mL
  MRT: 0.73 ± 0.05 h
  Vd: 6.36 ± 1.48 L
  clearance: 144 mL/min
  half-life: 1.64 ± 0.39 h
  C0: 79200 ± 18900 ng/mL
[1]; [6]
  AUC(0-inf): 22700 ± 2570 ng·h/mL
  AUC(0-t): 22200 ± 2480 ng·h/mL
  Cmax: 7920 ± 1770 ng/mL
  MRT: 4.23 ± 0.2 h
  Tmax: 2.83 ± 0.41 h
  half-life: 1.84 ± 0.29 h
[1]; dog, plasma, beagle dogs, estimated via AUC0→∞ of oral (60 mg/kg) and intravenous administration, read-out: mean absolute bioavailability (%F)
  bioavailability: 34.8%
[1]; one beagle dog plasma sample, 1.5 h after intravenous 10 mg/kg, read-out: assayed plasma concentration
  concentration at 1.5 h: 930 ng/mL
[2]; ambient temperature 2 h, spiked 20 ng/mL
  RE (relative error vs spiked): 5.0%
[2]; ambient temperature 2 h, spiked 20 ng/mL, beagle dog plasma
  Measured (mean ± SD): 21.00 ± 1.42 ng/mL
[2]; ambient temperature 2 h, spiked 800 ng/mL
  RE (relative error vs spiked): −3.6%
[2]; ambient temperature 2 h, spiked 800 ng/mL, beagle dog plasma
  Measured (mean ± SD): 771.45 ± 23.94 ng/mL
[2]; autosampler 24 h (extracted samples), spiked 20 ng/mL
  Measured (mean ± SD): 20.10 ± 1.22 ng/mL
[2]; autosampler 24 h (extracted samples), spiked 800 ng/mL
  Measured (mean ± SD): 772.49 ± 29.64 ng/mL
[2]; autosampler 24 h, spiked 20 ng/mL
  RE (relative error vs spiked): 0.5%
[2]; autosampler 24 h, spiked 800 ng/mL
  RE (relative error vs spiked): −3.4%
[2]
  long-term stability in plasma (in words): stable
[2]; listed as sodiusm danshensu
  long-term stability in plasma (in words): Excellent stability
[2]; beagle dog plasma, ambient temperature for 2 h
  ambient temperature stability in plasma (in words): Excellent stability
[2]; extracted samples kept in the autosampler for 24 h
  autosampler stability (in words): No degradation
[2]; long-term 20 days at −80 °C, spiked 20 ng/mL
  RE (relative error vs spiked): 2.5%
[2]; long-term 20 days at −80 °C, spiked 20 ng/mL, beagle dog plasma
  Measured (mean ± SD): 20.50 ± 1.13 ng/mL
[2]; long-term 20 days at −80 °C, spiked 800 ng/mL
  RE (relative error vs spiked): 3.1%
[2]; long-term 20 days at −80 °C, spiked 800 ng/mL, beagle dog plasma
  Measured (mean ± SD): 825.29 ± 55.20 ng/mL
[2]; three cycles of freezing and thawing
  freeze-thaw stability, deviation of the concentration (in words): within the acceptable limit
[2]; three freeze-thaw cycles at −80 °C, spiked 20 ng/mL
  RE (relative error vs spiked): 7.2%
[2]; three freeze-thaw cycles at −80 °C, spiked 20 ng/mL, beagle dog plasma
  Measured (mean ± SD): 21.45 ± 0.88 ng/mL
[2]; three freeze-thaw cycles at −80 °C, spiked 800 ng/mL
  RE (relative error vs spiked): −0.2%
[2]; three freeze-thaw cycles at −80 °C, spiked 800 ng/mL, beagle dog plasma
  Measured (mean ± SD): 798.54 ± 47.76 ng/mL
